In patent publication US9801949B2, “Combinations of albumin-based drug delivery systems” (KTB TUMORFORSCHUNGSGESELLSCHAFT MBH, priority 2012, dated 2017):
Marks after values point to notes of the source that are not given here. Numbered stars: 1 amine (or outer) side, 2 acyl side, 3 side chain; on linkers, the order of the positions; unused ones are H or OH. Square brackets hold non-standard residues; d marks the D form. Side chains are listed from the residue outwards. Peptide text beside a SMILES is read from it. * marks the point of attachment. DAMPA = CN(Cc1cnc2nc(N)nc(N)c2n1)c1ccc(C(=O)*)cc1; Hexanoyl(6-maleimido) = O=C1C=CC(=O)N1CCCCCC(=O)*; γGlu = O=C(O)[C@H](CCC(=O)[*:2])N[*:1]

Key:
[1] = tested on: several xenograft and orthotopic tumor models; settings: cited from earlier work
[2] = tested on: MiaPaCa-2 pancreatic carcinoma xenograft; settings: for antitumor efficacy (in words): MiaPaCa-2 xenograft, up to end of experiment (day 43), doses as in Table 1; for Tumor volume (day 43): s.c. MiaPaCa-2 xenografts, i.v. on days 10, 17, 24, dose per Table 1, median initial tumor volume 0.062 cm^3; for toxic death: 7 mice per group, i.v. on days 10, 17, 24, dose per Table 1
Protocol: In vivo efficacy studies in the MiaPaCa-2 xenograft model were carried out with doxorubicin, the 6-maleimidocaproyl(hydrazone) derivative of doxorubicin (DOXO-EMCH), the albumin-binding prodrug of methotrexate AW054, a combination of the 6-maleimidocaproyl(hydrazone) derivative of doxorubicin (DOXO-EMCH) and the albumin-binding prodrug of methotrexate AW054, doxorubicin, methotrexate and a combination of doxorubicin and methotrexate.
DOXO-EMCH was dissolved in sterile 10 mM sodium phosphate, 5% D-(+)-glucose (pH 5.8) and the respective dose administered intravenously within 30 minutes after dissolution. All doses of DOXO-EMCH and AW054 administered in the studies are stated in doxorubicin and methotrexate equivalents, respectively. Adrimedac® from medac, Germany, was used as the doxorubicin reference (c=2 mg/mL). Methotrexate (Sodium salt from medac) was used as a stock solution (12.5 mg methotrexate/mL in 5% D-Glucose from Braun, sterile). The stock solution AW054 for intravenous administration was 2.0 mg AW054/mL in 5% D-Glucose from Braun, sterile.
For in vivo testing in the MiaPaCa-2 xenograft model, female NMRI: nu/nu mice (Taconic, Denmark) were used. The mice were held in individually ventilaged cages (IVC) under sterile and standardized environmental conditions (25±2° C. room temperature, 50±10% relative humidity, 12 hour light-dark-rhythm). They received autoclaved food and bedding (ssniff, Soest, Germany) and acidified (pH 4.0) drinking water ad libitum. All animal experiments were performed under the auspices of the German Animal Protection Law.
MiaPaCa-2 cells (5×10^6 cells/mouse) were transplanted subcutaneously (s.c.) into the left flank region of each mouse on day zero. Mice were randomly distributed to the experimental groups (7 mice per group). Treatment was initiated at day 10 when the tumors were grown to a size of ˜60 mm^3. Mice were treated on a weekly schedule with 3×6 mg/kg doxorubicin (MTD), 2×125 mg/kg methotrexate (MTD), 3×24 mg/kg DOXO-EMCH (doxorubicin equivalents) (MTD), 3×20 mg/kg AW054 (methotrexate equivalents) (MTD), and a combination of 3×12 mg/kg DOXO-EMCH and 3×10 mg/kg AW054 or a combination of 3×3 mg/kg doxorubicin and 3×62.5 mg/kg methotrexate. All compounds were injected once a week for three weeks (days 10, 17, 24). The injection volume was 0.2 mU20 g body weight. Tumor size was measured twice weekly with a caliper-like instrument in two dimensions. Individual tumor volumes (V) were calculated by the formula V=(length×[width]^2)/2 and related to the values on the first day of treatment (relative tumor volume, RTV). The experiment was ended on day 43. Statistical analysis was performed with the U-test (Mann and Whitney) with p<0.05. The body weight of mice was determined every 3 to 4 days.
Combination therapy with doxorubicin and methotrexate was carried out at in a three weekly schedule (i.v.) at half of their maximum tolerated dose (MTD), i.e. 3×3 mg/kg for doxorubicin and 3×62.5 mg/kg methotrexate. Both DOXO-EMCH and AW054 were administered simultaneously (i.v.) in a three weekly schedule at half of their maximum tolerated dose (MTD), i.e. 3×12 mg/kg for DOXO-EMCH (doxorubicin equivalents) and 3×10 mg/kg (methotrexate equivalents) and at their respective MTDs, i.e. 3×24 mg/kg for DOXO-EMCH (doxorubicin equivalents) and 3×20 mg/kg for AW054 (methotrexate equivalents) (see the following Table 1).

[3] = conjugate formed with cysteine-34 of albumin; cited from earlier work
[4] = tested on: ovarian carcinoma xenograft model (OVCAR3); settings: cited from earlier work

Structure (SMILES)	efficacy compared to free doxorubicin [1]	antitumor efficacy (in words) [2]	Tumor volume (day 43) [2]	toxic death [2]	stability of albumin conjugate in human plasma [3]	efficacy compared to methotrexate [4]
COc1cccc2c1C(=O)c1c(O)c3c(c(O)c1C2=O)CC(O)(C(CO)=NNC(=O)CCCCCN1C(=O)C=CC1=O)CC3OC1CC(N)C(O)C(C)O1 (centres unmarked) [DOXO-EMCH, 6-maleimidocaproyl(hydrazone) derivative of doxorubicin]	superior efficacy over free doxorubicin	partial remission	0.034 ± 0.064* cm^3	–	–	–
COc1cccc2c1C(=O)c1c(O)c3c(c(O)c1C2=O)C[C@@](O)(C(=O)CO)C[C@@H]3O[C@H]1C[C@H](N)[C@H](O)[C@H](C)O1 [Doxorubicin, doxorubicin]	–	only showed moderate antitumor efficacy	0.190 ± 0.125* cm^3	0	–	–
C[C@@H](NC(=O)CCCCCN1C(=O)C=CC1=O)C(=O)N[C@@H](Cc1ccccc1)C(=O)N[C@@H](CCCCN)C(=O)N[C@@H](CCCCNC(=O)CC[C@H](NC(=O)c1ccc(N(C)Cc2cnc3nc(N)nc(N)c3n2)cc1)C(=O)O)C(=O)O [AW054, EMC-D-Ala-Phe-Lys-Lys(γ-MTX)-OH] ({Hexanoyl(6-maleimido)}-[dA]FKK([γGlu-DAMPA])-OH)	–	only showed moderate antitumor effects	0.264 ± 0.226* cm^3	0	stable in human plasma	superior compared to methotrexate
CN(Cc1cnc2nc(N)nc(N)c2n1)c1ccc(C(=O)N[C@@H](CCC(=O)O)C(=O)O)cc1 [Methotrexate, methotrexate]	–	only showed moderate antitumor efficacy	0.396 ± 0.307* cm^3	0	–	–
